What was measured:
Assay in all cases: relative viability (nuclei count vs DMSO), 5 days (fraction); higher = more cells survive
NCI-H1437 = test system: NCI-H1437
Procedure, shortened: (§1)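 Lung cancer cell lines were seeded in 1536-well plates and dosed by pin tool the next day, with either a single drug or a fixed anchor-drug dose combined with five library-drug doses (not always all listed) spaced in √10 steps. Five days later, one step fixed the cells and stained their nuclei (final 0.05% Triton X-100, 1% formaldehyde, 1 ug/ml Hoechst), and nuclei were counted on 4× images. Relative viability is the nuclei count in treated wells divided by the count in vehicle wells, and each value is the median of duplicate plates.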

NCI-H1755 = test system: NCI-H1755
Procedure, shortened: as §1

NCI-H1915 = test system: NCI-H1915
Procedure, shortened: as §1

NCI-H2009 = test system: NCI-H2009
Procedure, shortened: as §1

NCI-H2228 = test system: NCI-H2228
Procedure, shortened: as §1

NCI-H23 = test system: NCI-H23
Procedure, shortened: as §1

NCI-H460 = test system: NCI-H460
Procedure, shortened: as §1

NCI-H522 = test system: NCI-H522
Procedure, shortened: as §1

NCI-H727 = test system: NCI-H727
Procedure, shortened: as §1

SK-LU-1 = test system: SK-LU-1
Procedure, shortened: as §1

SW 1573 = test system: SW 1573
Procedure, shortened: as §1

O=c1cc(N2CCOCC2)oc2c(-c3cccc4c3sc3ccccc34)cccc12 + Cc1cc(Nc2cc(N3CCN(C)CC3)nc(Sc3ccc(NC(=O)C4CC4)cc3)n2)n[nH]1 [Tozasertib] (partner 0.1 µM)
relative viability (NCI-H1437; first compound 0.1 µM): 0.428 | relative viability (NCI-H1437; first compound 0.3162 µM): 0.431 | relative viability (NCI-H1437; first compound 1 µM): 0.373 | relative viability (NCI-H1755; first compound 0.01 µM): 0.592 | relative viability (NCI-H1755; first compound 0.03162 µM): 0.669 | relative viability (NCI-H1755; first compound 0.1 µM): 0.693 | relative viability (NCI-H1755; first compound 0.3162 µM): 0.539 | relative viability (NCI-H1755; first compound 1 µM): 0.542 | relative viability (NCI-H1915; first compound 0.01 µM): 0.419 | relative viability (NCI-H1915; first compound 0.03162 µM): 0.438 | relative viability (NCI-H1915; first compound 0.1 µM): 0.485 | relative viability (NCI-H1915; first compound 0.3162 µM): 0.456 | relative viability (NCI-H1915; first compound 1 µM): 0.422 | relative viability (NCI-H2009; first compound 0.01 µM): 0.747 | relative viability (NCI-H2009; first compound 0.03162 µM): 0.704 | relative viability (NCI-H2009; first compound 0.1 µM): 0.8 | relative viability (NCI-H2009; first compound 0.3162 µM): 0.708 | relative viability (NCI-H2009; first compound 1 µM): 0.708 | relative viability (NCI-H2228; first compound 0.01 µM): 0.331 | relative viability (NCI-H2228; first compound 0.03162 µM): 0.267 | relative viability (NCI-H2228; first compound 0.1 µM): 0.217 | relative viability (NCI-H2228; first compound 0.3162 µM): 0.224 | relative viability (NCI-H2228; first compound 1 µM): 0.228 | relative viability (NCI-H23; first compound 0.01 µM): 0.363 | relative viability (NCI-H23; first compound 0.03162 µM): 0.391 | relative viability (NCI-H23; first compound 0.3162 µM): 0.31 | relative viability (NCI-H23; first compound 1 µM): 0.351 | relative viability (NCI-H460; first compound 0.01 µM): 0.342 | relative viability (NCI-H460; first compound 0.03162 µM): 0.479 | relative viability (NCI-H460; first compound 0.1 µM): 0.511 | relative viability (NCI-H460; first compound 0.3162 µM): 0.417 | relative viability (NCI-H460; first compound 1 µM): 0.465 | relative viability (NCI-H522; first compound 0.01 µM): 0.548 | relative viability (NCI-H522; first compound 0.03162 µM): 0.607 | relative viability (NCI-H522; first compound 0.1 µM): 0.594 | relative viability (NCI-H522; first compound 0.3162 µM): 0.551 | relative viability (NCI-H522; first compound 1 µM): 0.61 | relative viability (NCI-H727; first compound 0.01 µM): 0.607 | relative viability (NCI-H727; first compound 0.03162 µM): 0.644 | relative viability (NCI-H727; first compound 0.1 µM): 0.673 | relative viability (NCI-H727; first compound 0.3162 µM): 0.632 | relative viability (NCI-H727; first compound 1 µM): 0.673 | relative viability (SK-LU-1; first compound 0.01 µM): 0.314 | relative viability (SK-LU-1; first compound 0.03162 µM): 0.298 | relative viability (SK-LU-1; first compound 0.1 µM): 0.393 | relative viability (SK-LU-1; first compound 0.3162 µM): 0.308 | relative viability (SK-LU-1; first compound 1 µM): 0.329 | relative viability (SW 1573; first compound 0.01 µM): 0.198 | relative viability (SW 1573; first compound 0.03162 µM): 0.159 | relative viability (SW 1573; first compound 0.1 µM): 0.164 | relative viability (SW 1573; first compound 0.3162 µM): 0.157 | relative viability (SW 1573; first compound 1 µM): 0.166

Source: the supplement of paper PMC10307832
